What was measured:
Assay type in all cases: cell-based
[1] = tested on: Staphylococcus aureus (NCTC 11939); experiment: L-alanine-aminopeptidase activity on gelled medium, Example 8; design: key to growth: ++ means good growth; + means moderate growth; +/− means poor growth; NG means no growth
Procedure: (§1) A gelled medium comprising these three substrates is prepared as follows: 30 mg of each substrate are dissolved (heating) in 10 ml of sterile distilled water. Ten ml of this solution are then added to 90 ml of Columbia agar kept molten at 50° C.
(§2) Various strains of microorganisms derived from the NCTC collection (National Collection of Type Cultures, Colindale, UK) were seeded onto the media thus obtained according to multipoint inoculation: for each strain, a drop of 10 μl of a suspension at 0.5 McFarland is deposited onto each of the culture media.
(§3) The colonies formed were examined visually after incubation for 24 h and 48 h. The color and the growth of these colonies were noted.

[2] = tested on: Pseudomonas aeruginosa (NCTC 10662); experiment: as above; design: key to growth: ++ means good growth; + means moderate growth; +/− means poor growth; NG means no growth
Procedure: as §1, §2, §3

[3] = tested on: Klebsiella pneumoniae (NCTC 10896); experiment: as above; design: key to growth: ++ means good growth; + means moderate growth; +/− means poor growth; NG means no growth
Procedure: as §1, §2, §3

[4] = tested on: E. coli O157 (NCTC 12079); experiment: as above; design: key to growth: ++ means good growth; + means moderate growth; +/− means poor growth; NG means no growth
Procedure: as §1, §2, §3

[5] = tested on: Salmonella poona (NCTC 4840); experiment: as above; design: key to growth: ++ means good growth; + means moderate growth; +/− means poor growth; NG means no growth
Procedure: as §1, §2, §3

[6] = tested on: Enterococcus faecium (NCTC 7171); experiment: as above; design: key to growth: ++ means good growth; + means moderate growth; +/− means poor growth; NG means no growth
Procedure: as §1, §2, §3

[7] = tested on: Listeria monocytogenes (NCTC 11994); experiment: as above; design: key to growth: ++ means good growth; + means moderate growth; +/− means poor growth; NG means no growth
Procedure: as §1, §2, §3

[8] = tested on: Shigella sonnei (NCTC 9774); experiment: as above; design: key to growth: ++ means good growth; + means moderate growth; +/− means poor growth; NG means no growth
Procedure: as §1, §2, §3

[9] = tested on: Enterococcus faecalis (NCTC 755); experiment: as above; design: key to growth: ++ means good growth; + means moderate growth; +/− means poor growth; NG means no growth
Procedure: as §1, §2, §3

[10] = tested on: Enterococcus faecalis (NCTC 12697); experiment: as above; design: key to growth: ++ means good growth; + means moderate growth; +/− means poor growth; NG means no growth
Procedure: as §1, §2, §3

[11] = tested on: Staphylococcus aureus (NCTC 6571); experiment: as above; design: key to growth: ++ means good growth; + means moderate growth; +/− means poor growth; NG means no growth
Procedure: as §1, §2, §3

[12] = tested on: Serratia marcescens (NCTC 10211); experiment: as above; design: key to growth: ++ means good growth; + means moderate growth; +/− means poor growth; NG means no growth
Procedure: as §1, §2, §3

[13] = tested on: Burkholderia cepacia (NCTC 10743); experiment: as above; design: key to growth: ++ means good growth; + means moderate growth; +/− means poor growth; NG means no growth
Procedure: as §1, §2, §3

[14] = tested on: Enterobacter cloacae (NCTC 11936); experiment: as above; design: key to growth: ++ means good growth; + means moderate growth; +/− means poor growth; NG means no growth
Procedure: as §1, §2, §3

[15] = tested on: Salmonella typhimurium (NCTC 74); experiment: as above; design: key to growth: ++ means good growth; + means moderate growth; +/− means poor growth; NG means no growth
Procedure: as §1, §2, §3

[16] = tested on: Candida albicans (056); experiment: L-alanine-aminopeptidase activity on gelled medium, Example 3; conditions: 0.3 g/l
Procedure: (§4) A gelled medium comprising 300 mg/l of L-Ala-4-AP-10-MA is prepared as follows: 46.37 g of Columbia agar are added to 1 liter of distilled water and then autoclaved, and the substrate is then introduced by means of a stock solution in DMSO. Microorganisms derived from the applicant's collection were seeded onto the medium, by delimitation as three dials, using a suspension at 0.5 McFarland. The dishes were incubated at 37° C. for 48 hours. The colonies formed were examined visually after incubation for 24 and 48 hours. The color of these colonies and also the intensity of this color were noted.

[17] = tested on: Citrobacter koseri (090); experiment: as above; conditions: 0.3 g/l
Procedure: as §4

[18] = tested on: Proteus mirabilis (103); experiment: as above; conditions: 0.3 g/l
Procedure: as §4

[19] = tested on: Staphylococcus aureus (070); experiment: as above; conditions: 0.3 g/l
Procedure: as §4

[20] = tested on: Escherichia coli (032); experiment: as above; conditions: 0.3 g/l
Procedure: as §4

[21] = tested on: Enterococcus faecalis (075); experiment: as above; conditions: 0.3 g/l
Procedure: as §4

[22] = tested on: Listeria innocua (036); experiment: as above; conditions: 0.3 g/l
Procedure: as §4

[23] = tested on: Klebsiella pneumoniae (023); experiment: as above; conditions: 0.3 g/l
Procedure: as §4

[24] = tested on: Streptococcus pyogenes (067); experiment: as above; conditions: 0.3 g/l
Procedure: as §4

[25] = tested on: Candida parapsilosis (040); experiment: L-proline-aminopeptidase activity on gelled medium, Example 6; conditions: 0.3 g/l, 24 hours
Procedure: (§5) A gelled medium comprising L-prolyl-9-(4-amino-phenyl)acridine (hereinafter referred to as L-Pro-4-APA) is prepared as follows: 45 g of Sabouraud agar are added to 1 liter of distilled water and then autoclaved. This reaction medium comprises 0.3 g/l of L-Pro-APA also introduced by means of a stock solution in DMSO.
(§6) Microorganisms derived from the applicant's collection were seeded onto this medium, by delimitation as three dials, using a suspension of 0.5 McFarland. The dishes were incubated at 37° C. for 24 hours. The colonies formed were examined visually after incubation for 24 hours. The color of these colonies was noted before and after the addition of a drop of acetic acid, hereinafter referred to as GAA (glacial acetic acid).

[26] = tested on: Candida krusei (026); experiment: as above; conditions: 0.3 g/l, 24 hours
Procedure: as §5, §6

[27] = tested on: Candida glabrata (051); experiment: as above; conditions: 0.3 g/l, 24 hours
Procedure: as §5, §6

[28] = tested on: Candida albicans (138); experiment: as above; conditions: 0.3 g/l, 24 hours
Procedure: as §5, §6

[29] = tested on: Candida guilliermondii (046); experiment: as above; conditions: 0.3 g/l, 24 hours
Procedure: as §5, §6

[30] = tested on: Candida lusitaniae (045); experiment: as above; conditions: 0.3 g/l, 24 hours
Procedure: as §5, §6

[31] = tested on: Acinetobacter calcoaceticus (034); experiment: β-alanine-aminopeptidase activity on gelled medium, Example 5; conditions: 0.3 g/l
Procedure: as §4, with “of β-Ala-4-AP-10-MA” for “of L-Ala-4-AP-10-MA”, “suspension of” for “suspension at”

[32] = tested on: Pseudomonas fluorescens (016); experiment: as above; conditions: 0.3 g/l
Procedure: as §4, with “of β-Ala-4-AP-10-MA” for “of L-Ala-4-AP-10-MA”, “suspension of” for “suspension at”

[33] = tested on: Pseudomonas putida (028); experiment: as above; conditions: 0.3 g/l
Procedure: as §4, with “of β-Ala-4-AP-10-MA” for “of L-Ala-4-AP-10-MA”, “suspension of” for “suspension at”

[34] = tested on: Pseudomonas aeruginosa (052); experiment: as above; conditions: 0.3 g/l
Procedure: as §4, with “of β-Ala-4-AP-10-MA” for “of L-Ala-4-AP-10-MA”, “suspension of” for “suspension at”

[35] = tested on: Pseudomonas aeruginosa (165); experiment: as above; conditions: 0.3 g/l
Procedure: as §4, with “of β-Ala-4-AP-10-MA” for “of L-Ala-4-AP-10-MA”, “suspension of” for “suspension at”

[36] = tested on: Escherichia coli (032); experiment: as above; conditions: 0.3 g/l
Procedure: as §4, with “of β-Ala-4-AP-10-MA” for “of L-Ala-4-AP-10-MA”, “suspension of” for “suspension at”

[37] = tested on: Klebsiella pneumoniae (023); experiment: as above; conditions: 0.3 g/l
Procedure: as §4, with “of β-Ala-4-AP-10-MA” for “of L-Ala-4-AP-10-MA”, “suspension of” for “suspension at”

[38] = tested on: Pseudomonas stutzeri (073); experiment: as above; conditions: 0.3 g/l
Procedure: as §4, with “of β-Ala-4-AP-10-MA” for “of L-Ala-4-AP-10-MA”, “suspension of” for “suspension at”

[39] = tested on: Burkholderia cepacia (004); experiment: as above; conditions: 0.3 g/l
Procedure: as §4, with “of β-Ala-4-AP-10-MA” for “of L-Ala-4-AP-10-MA”, “suspension of” for “suspension at”

C[C@H](N)C(=O)Nc1ccc(-c2c3ccccc3[n+](C)c3ccccc23)cc1.[Cl-] [L-Ala-4-AP-10-MA, L-alanyl-9-(4-aminophenyl)-10-methylacridinium Chloride]
NG: growth ([9]; 24 h) | growth ([9]; 48 h) | growth ([11]; 24 h) | growth ([11]; 48 h)
inhibited: Color ([19]; 24 H) | Color ([19]; 48 h) | Color ([24]; 24 H) | Color ([24]; 48 h)
2: Intensity ([18]; 48 h)
1: Intensity ([18]; 24 H)
0.5: Intensity ([21]; 48 h)
3: Intensity ([17]; 24 H) | Intensity ([17]; 48 h) | Intensity ([23]; 24 H) | Intensity ([23]; 48 h)
pink: Color ([21]; 24 H)
3.5: Intensity ([20]; 24 H) | Intensity ([20]; 48 h)
+/−: growth ([10]; 24 h) | growth ([10]; 48 h)
traces: Intensity ([21]; 24 H) | Intensity ([22]; 48 h)
Colorless: color of colonies ([1]; 24 h) | color of colonies ([1]; 48 h) | color of colonies ([6]; 24 h) | color of colonies ([6]; 48 h) | color of colonies ([7]; 24 h) | color of colonies ([7]; 48 h) | color of colonies ([10]; 24 h) | color of colonies ([10]; 48 h)
colorless: Color ([16]; 24 H) | Color ([16]; 48 h) | Color ([22]; 24 H)
Orange: color of colonies ([2]; 24 h) | color of colonies ([2]; 48 h) | color of colonies ([3]; 24 h) | color of colonies ([3]; 48 h) | color of colonies ([4]; 24 h) | color of colonies ([4]; 48 h) | color of colonies ([5]; 24 h) | color of colonies ([5]; 48 h) | color of colonies ([8]; 24 h) | color of colonies ([8]; 48 h) | color of colonies ([12]; 24 h) | color of colonies ([12]; 48 h) | color of colonies ([13]; 24 h) | color of colonies ([13]; 48 h) | color of colonies ([14]; 24 h) | color of colonies ([14]; 48 h) | color of colonies ([15]; 24 h) | color of colonies ([15]; 48 h)
pink-orange: Color ([17]; 24 H) | Color ([17]; 48 h) | Color ([18]; 24 H) | Color ([18]; 48 h) | Color ([20]; 24 H) | Color ([20]; 48 h) | Color ([21]; 48 h) | Color ([22]; 48 h) | Color ([23]; 24 H) | Color ([23]; 48 h)
++: growth ([1]; 24 h) | growth ([1]; 48 h) | growth ([2]; 24 h) | growth ([2]; 48 h) | growth ([3]; 24 h) | growth ([3]; 48 h) | growth ([4]; 24 h) | growth ([4]; 48 h) | growth ([5]; 24 h) | growth ([5]; 48 h) | growth ([6]; 24 h) | growth ([6]; 48 h) | growth ([7]; 24 h) | growth ([7]; 48 h) | growth ([8]; 24 h) | growth ([8]; 48 h) | growth ([12]; 24 h) | growth ([12]; 48 h) | growth ([13]; 24 h) | growth ([13]; 48 h) | growth ([14]; 24 h) | growth ([14]; 48 h) | growth ([15]; 24 h) | growth ([15]; 48 h)

O=C(Nc1ccc(-c2c3ccccc3nc3ccccc23)cc1)[C@@H]1CCCN1 [L-Pro-4-APA, L-Prolyl-9-(4-aminophenyl)acridine]
1: Intensity ([26]; before GAA)
yellow: Color ([25]; after GAA) | Color ([26]; after GAA) | Color ([26]; before GAA) | Color ([27]; after GAA) | Color ([27]; before GAA) | Color ([28]; after GAA) | Color ([28]; before GAA)
white: Color ([25]; before GAA)
no growth: Color ([29]; after GAA) | Color ([29]; before GAA) | Color ([30]; after GAA) | Color ([30]; before GAA)
3: Intensity ([26]; after GAA) | Intensity ([27]; after GAA) | Intensity ([28]; after GAA)
2: Intensity ([25]; after GAA) | Intensity ([27]; before GAA) | Intensity ([28]; before GAA)

C[n+]1c2ccccc2c(-c2ccc(NC(=O)CCN)cc2)c2ccccc21.[Cl-] [β-Ala-4-AP-10-MA, β-alanyl-9-(4-aminophenyl)-10-methylacridinium chloride]
2: Intensity ([34]; 24 H)
3: Intensity ([34]; 48 h) | Intensity ([35]; 48 h)
1.5: Intensity ([35]; 24 H)
colorless: Color ([31]; 24 H) | Color ([31]; 48 h) | Color ([32]; 48 h) | Color ([33]; 24 H) | Color ([33]; 48 h) | Color ([36]; 24 H) | Color ([36]; 48 h) | Color ([37]; 24 H) | Color ([37]; 48 h) | Color ([38]; 48 h) | Color ([39]; 24 H) | Color ([39]; 48 h)
inhibited: Color ([32]; 24 H) | Color ([38]; 24 H)
orange: Color ([34]; 24 H) | Color ([34]; 48 h) | Color ([35]; 24 H) | Color ([35]; 48 h)

— patent publication US7223865B2, “Chromogenic compounds, and use thereof as enzyme substrates” (Biomerieux, priority 2003, dated 2007)
